Measured values published in patent US6596863B2, “Medical composition containing nitroetheneamine Derivative or salt there of as active constituent” (Ishihara Sangyo Kaisha, Ltd., priority 1998, dated 2003).
Like-named read-outs stand apart in the source and are kept apart here. Marks after values point to notes of the source that are not given here.

How the values were obtained:
Type in all cases: in vivo
[1] = tested on: Meth A/AD cells (mouse fibrosarcoma); parameters: Tumor volume (Day 22) Average ± standard deviation / Tumor growth inhibition ratio (%) / Tumor volume (Day 24) Average ± standard deviation: dose or concentration left out as unconfirmed; conditions: for inhibition ratio of tumor growth of Meth A/AD: intraperitoneal administration, total of 10 times, male BALB/c mouse, tumor volume vs vehicle control
Experimental: Meth A mouse fibrosarcoma cells intraperitoneally subcultured in mouse (supplied from Sasaki Institute) were cultured at 39° C. for 10 days in 5% CO2 (using 10% fetal bovine serum-containing RPMI culture medium (manufactured by Flow Laboratories)) and then inoculated subcutaneously to BALB/c mouse. The tumor grown for 30 days, was taken out and passed through a metal mesh to obtain single cells, which were again returned and continuously cultured in vitro (37° C.). […] On the other hand, the Meth A/AD strain always produces and secretes MMP-2 in the supernatant in in vitro culture, but when TNF-α (50 ng/ml) was added in the culture solution, it produced MMP-9 remarkably.
With reference to the method by Keneda et al (Cancer Research, Vol. 58, 290-295, 1998), the inhibitory effect on tumor growth were evaluated. Namely, 1×10^6 Meth A/AD cells cultured in vitro (suspended in 0.05 ml of a Hanks equilibrium salt solution) were intradermaly transplanted to the dosal skin of a male BALB/c AnNCrj mouse of 5 weeks old (purchased from Charles River Japan, Inc.) (Day 0). […] Compound No. 107 was suspended in a 1% Tween 80 physiological sodium chloride aqueous solution, and Compound No. 164 was dissolved in 100 mM Tris-HCl (pH 8.5)/150 mM NaCl, for administration. To the vehicle control group, the respective solvents containing no test materials were administered in the same manner. The measurement of the body weight and the observation of the general findings were carried out everyday up to Day 22 or 24, and the tumor diameters (the long diameter and the short diameter) were measured by a slide gauge every one day, and the difference in the tumor volume between the vehicle control group and the drug-treated group was evaluated. The tumor volume was calculated in accordance with the calculation formula of [(long diameter)×(short diameter)^2×½].

[2] = tested on: Colon 26/AD cells (mouse colon cancer)
Experimental: Colon 26 mouse colon cancer cells (obtained from Cancer Chemotherapy Center Foundation for Cancer Research) were transplanted subcutaneously to BALB/c mouse, 10 days later, the grown tumor was taken out. It was hashed in a Hanks equilibrium salt solution and passed through a metal mesh to obtain single cells, which were cultured in vitro (37° C., 5% CO2) (using 10% fetal bovine serum-containing Dulbecco's Modified Eagle Medium (D-5648, manufactured by Sigma Co.)). […] The same cell strain always produced and secreted MMP-2 in the supernatant of the in vitro culture, but when cultured by an addition of TNF-α (50 ng/ml) in the culture solution, it produced MMP-9 remarkably.
With reference to the method by Tsuruo et al (Japanese Journal of Cancer Research (Gann), Vol. 75, 193-198, 1984), the inhibition effects against experimental lung metastasis were evaluated. Namely, 3×10^4 Colon 26/AD cells (suspended in 0.2 ml of Minimum Essential Medium (manufactured by Nissui Seiyaku K. K.)) cultured in vitro were transplanted through the tail vein of a male BALB/c AnNCrj mouse (purchased from Charles River Japan, Inc.) of 6 weeks old (Day 0). In the case of Compound No. 37, it was suspended in a 1% Tween 80/physiological sodium chloride aqueous solution and intraperitoneally administered (administered in a volume of 10 ml/kg) immediately (within 5 minutes) before transplantation of the cells, 2 hours later and once per day on Day 1-4 and Day 7-11 (a total of 11 times). Further, in the case of Compound No. 157, it was dissolved in 100 mM Tris-HCl (pH 8.5)/150 mM NaCl and forcibly orally administered (administered in a volume of 10 ml/kg) by means of a metal sonde 30 minutes before transplantation of the cells, in the morning and evening of Day 1 and once per day on Day 2-4, Day 7-11 and Day 14 (a total of 12 times). To the vehicle control group, the respective solvents containing no test materials, were administered in the same manner. On Day 14 or Day 15, the lung of each mouse was taken out, and the weight was measured, and the metastatis inhibition rate was calculated in accordance with the following formula. [formula]
A is the weight of lung of the treated group
B is the average weight of lung of the normal group
C is the average weight of lung of the solvent control group.

[3] = tested on: mouse arthritis model induced by a single immunization with collagen; experiment: Mouse arthritis model induced by a single immunization with collagen
Experimental: With reference to the method by Kato, F. et al (Annals of the Rheumatic Diseases, Vol. 55, 535-539, 1996), a bovine type II collagen (K-41, manufactured by collagen Gijutsu Kenkyukai) solution (3 mg/ml) dissolved in 0.05N acetic acid and Freund's complete adjuvant (Freund, Adjuvant Complete; No. F5506, manufactured by Sigma Co.) were mixed in equal amounts and subjected to ultrasonic treatment (under cooling with ice, 20 seconds×3 times) to obtain a uniform emulsion.
0.1 ml (150 μg) of the antigen prepared as described above, was administered to the tail head skin of a female DBA/1JNCrj mouse of 5 weeks old (purchased from Charles River Japan, Inc.) (Day 0). After 2 weeks from sensitization (Day 14), Compound No. 164 (50 mg/kg) suspended in a 1% Tween 80/physiological sodium chloride aqueous solution was intraperitoneally administered (administered in a volume of 10 ml/kg) once a day continuously for 5 weeks. To the vehicle control group, the 1% Tween 80/physiological sodium chloride aqueous solution was administered in the same manner.
Sideration of arthritis was observed once a week from Day 1 in accordance with the following evaluation standards disclosed in a literature of Kato, F. et al (Annals of the Rheumatic Diseases, Vol. 55, 535-539, 1996) with respect to Knuckle joints of the respective four limbs.

SMILES: CCOCCOc1cc(C(F)(F)F)cc(NNC(=C[N+](=O)[O-])NC)n1 [Compound No. 107]
- inhibition ratio of tumor growth of Meth A/AD ([1]; 100 mg/kg): 63.5%
- Tumor growth inhibition ratio (%) ([1]; intraperitoneal, Day 22): 63.5* %
- Tumor volume (Day 22) Average ± standard deviation ([1]; intraperitoneal, Day 22, vehicle control 1058 ± 556): 386 ± 275* mm^3

SMILES: CS(=O)(=O)NC(=C[N+](=O)[O-])NNc1cc(C(F)(F)F)cc(Cl)n1 [Compound No. 157, N-(1-(6-chloro-4-trifluoromethyl-2-pyridyl)hydrazino-2-nitroethenyl)methanesulfonamide]
- Metastatis inhibition ratio (%) ([2]; 10 mg/kg × 11 times (head), oral, Day 15): 59.5%*
- Lung weight increase (g) against normal mouse ([2]; 10 mg/kg × 11 times (head), oral, Day 15, vehicle control 0.183 ± 0.11): 0.070 ± 0.08 g
- Weight of lung (g) (Day 15) ([2]; 10 mg/kg × 11 times (head), oral, Day 15, vehicle control 0.364, normal mouse 0.181): 0.257 g
- inhibition ratio of experimental metastasis of Colon 26/AD to lung ([2]; 10 mg/kg, oral administration, total of 12 times, male BALB/c mouse, from lung weight): 59.5%

SMILES: CCOCCOc1cc(C(F)(F)F)cc(NNC(=C[N+](=O)[O-])NS(C)(=O)=O)n1 [Compound No. 164, N-(1-(6-(2-ethoxyethoxy)-4-trifluoromethyl-2-pyridyl)hydrazino-2-nitroethenyl)methanesulfonamide]
- inhibition ratio of tumor growth of Meth A/AD ([1]; 30 mg/kg): 49.8%
- Tumor growth inhibition ratio (%) ([1]; intraperitoneal, Day 24): 49.8* %
- Tumor volume (Day 24) Average ± standard deviation ([1]; intraperitoneal, Day 24, vehicle control 2045 ± 987): 1027 ± 907* mm^3
- sideration of arthritis compared with the control group ([3]; 50 mg/kg intraperitoneal everyday from Day 14 for 5 weeks, female DBA/1J mouse, p<0.01, Wilcoxon ranking test): significantly delayed
- toxicity / body weight increase by observation of general findings ([3]; 50 mg/kg intraperitoneal everyday, during the test period): no distinct toxicity or inhibition against the body weight increase
- Sideration ratio of arthritis (number of diseased animals/number of tested animals) ([3]; Day 14 (initial of administration of drug), 50 mg/kg intraperitoneal, vehicle control 0/8): 0/8
- Sideration ratio of arthritis (number of diseased animals/number of tested animals) ([3]; Day 21, 50 mg/kg intraperitoneal once a day, vehicle control 2/8): 0/8
- Sideration ratio of arthritis (number of diseased animals/number of tested animals) ([3]; Day 28, 50 mg/kg intraperitoneal once a day, vehicle control 7/8): 2/8
- Sideration ratio of arthritis (number of diseased animals/number of tested animals) ([3]; Day 35, 50 mg/kg intraperitoneal once a day, vehicle control 8/8): 6/8
- Sideration ratio of arthritis (number of diseased animals/number of tested animals) ([3]; Day 42, 50 mg/kg intraperitoneal once a day, vehicle control 8/8): 7/8
- Sideration ratio of arthritis (number of diseased animals/number of tested animals) ([3]; Day 49, 50 mg/kg intraperitoneal once a day, vehicle control 8/8): 7/8
